The values below come from publication PMC2962915, “The –SH Protection Method for Determining Accurate Kd Values for Enzyme-Coenzyme Complexes of NAD^+-Dependent Glutamate Dehydrogenase and Engineered Mutants: Evidence for Nonproductive NADPH Complexes” (Enzyme Research, 2010).

Like-named read-outs stand apart in the source and are kept apart here.

The target of the test is T1, clostridial glutamate dehydrogenase (GDH) ([Clostridium] symbiosum, UniProt P24295).
T1 construct: no tag mentioned
T1 sequence (P24295 2-450): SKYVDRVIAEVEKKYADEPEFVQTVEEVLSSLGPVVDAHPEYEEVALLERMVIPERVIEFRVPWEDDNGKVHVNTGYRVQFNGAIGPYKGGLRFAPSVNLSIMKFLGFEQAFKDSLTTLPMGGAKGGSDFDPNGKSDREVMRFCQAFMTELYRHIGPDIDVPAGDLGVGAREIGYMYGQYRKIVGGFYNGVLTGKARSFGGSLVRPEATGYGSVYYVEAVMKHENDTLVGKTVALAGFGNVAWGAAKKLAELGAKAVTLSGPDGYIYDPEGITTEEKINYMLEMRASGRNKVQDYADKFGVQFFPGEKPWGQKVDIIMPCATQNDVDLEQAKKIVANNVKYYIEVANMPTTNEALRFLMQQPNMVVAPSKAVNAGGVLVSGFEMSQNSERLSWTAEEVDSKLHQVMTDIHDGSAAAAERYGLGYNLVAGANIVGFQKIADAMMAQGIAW
Nature of the test: protection against DTNB inactivation. The conditions noted are these: 0.1 M potassium phosphate, pH 7.0, 25°C, 200 μM DTNB, competitive with DTNB at coenzyme site, Kd corrected for DTNB. It counts as biochemical. From the text: protection against DTNB inactivation on clostridial glutamate dehydrogenase (GDH)

Turning to `NC(=O)C1=CN([C@@H]2O[C@H](COP(=O)(O)OP(=O)(O)OC[C@H]3O[C@@H](n4cnc5c(N)ncnc54)[C@H](O)[C@@H]3O)[C@@H](O)[C@H]2O)C=CC1` [NADH], the Kd (read-out: K dNADH) was 24 ± 1 µM.

With `NC(=O)C1=CN([C@@H]2O[C@H](COP(=O)(O)OP(=O)(O)OC[C@H]3O[C@@H](n4cnc5c(N)ncnc54)[C@H](OP(=O)(O)O)[C@@H]3O)[C@@H](O)[C@H]2O)C=CC1` [NADPH], the Kd (read-out: K dNADPH) was 23 ± 1 µM.

Regarding `NC(=O)c1ccc[n+]([C@@H]2O[C@H](COP(=O)(O)OP(=O)(O)OC[C@H]3O[C@@H](n4cnc5c(N)ncnc54)[C@H](O)[C@@H]3O)[C@@H](O)[C@H]2O)c1` [NAD^+], the Kd (read-out: K dNAD+) worked out at 335 ± 17 µM.
